In article PMC12720098, “Prolintane analogs as hybrid monoamine transporter ligands: Structural determinants and species differences” (The Journal of Biological Chemistry, 2025):
“Also recorded” adds a separate entry of the source. Where a name gives a salt, the structure may show the parent alone. Read-outs that look alike come from different tables or passages of the source.

Columns and labels:
native HEK293 cells = assay: Whole-cell patch-clamp control in native HEK293 cells without transfection; type: cell-based, human; details: prolintane 30 µM, 5-HT 10 µM (Fig. S3)
Description: One day prior to recording, either native HEK293 cells or HEK293 cells stably expressing monoamine transporters were seeded at low density onto PDL-coated 35 mm dishes. Patch-clamp experiments were conducted at a holding potential of −60 mV, with substrate-induced currents recorded at room temperature (20–24 °C) using an […] amplifier and pClamp 11.2 software (MDS Analytical Technologies). During recordings, cells were continuously superfused via a DAD-12 perfusion system and an 8-tube manifold (ALA Scientific Instruments), delivering an external solution composed of 140 mM NaCl, 2.5 mM CaCl2, 3 mM KCl, 2 mM MgCl2, 20 mM glucose, and 10 mM HEPES, with pH adjusted to 7.3 using NaOH. The intracellular pipette solution, designed to mimic physiological ionic conditions, contained 133 mM potassium gluconate, 5.9 mM NaCl, 1 mM CaCl2, 0.7 mM MgCl2, 10 mM HEPES, and 10 mM EGTA, with pH set to 7.2 using KOH. Currents were filtered at 1 kHz and digitized at 10 kHz via a Digidata 1550 digitizer (MDS Analytical Technologies), followed by analysis in Clampfit 10.2 (Molecular Devices). Substance-induced currents were normalized to the current elicited by a saturating concentration of 5-HT (10 μM) of the same cell. Holding currents were subtracted, and a 50 Hz digital Gaussian low-pass filter was applied to the traces for further analysis.

hDAT = target: T1, hDAT (Homo sapiens, UniProt Q01959); assay: Batch release assay ([3H]MPP+) in transfected HEK293 cells; type: cell-based; details: % efflux of total uptake, compounds approximately at IC50 concentration
T1 construct: expressed in transfected cells
Description: (§1) Batch release assays were performed as described previously ([44]). In brief, HEK293 cells stably expressing monoamine transporters were seeded similar to the procedure used for uptake inhibition assays. A day after seeding cells were pre-loaded with 50 μl/well 0.015 μM [^3H]MPP^+ (hDAT, hNET), or 0.08 μM [^3H]5-HT (hSERT) for 20 min at 37 °C. Then cells were washed four times for 3 to 4 min each and further incubated with KHB or KHB + monensin. After 10 min of incubation, two (screening) to four (full traces; hSERT) 2 min incubations were performed to establish a baseline release without substance. […] Each fraction was transferred to an empty well in the 96-well plate. For screening, a known inhibitor (hDAT, hNET: 50 μM GBR12909) and releaser (hDAT, hNET: 10 μM S-(+)-amphetamine) were used as controls. Ultima Gold XR scintillation cocktail was added to the remaining cells, and each well contained a release fraction. The counted radioactivity in the respective fraction was expressed as a percentage of total radioactivity at the start of the fraction.
(§2) Half-maximal inhibitory concentrations (IC50) were obtained from fitting a sigmoidal dose–response ( Y=Bottom+Top−Bottom/1+10^((LogIC50−X)·HillSlope) ) in GraphPad Prism 10.3.1 (GraphPad Software Inc.). Uptake inhibition data were evaluated by one-way ANOVA followed by Tukey's multiple comparisons test. Release data were analyzed using a two-way ANOVA (batch release) or a mixed-effects model with Geisser-Greenhouse correction (time-dependent traces) employing Šidák correction for comparing differences between compounds with or without the addition of monensin.

hNET = target: T2, hNET (Homo sapiens, UniProt P23975); assay: as above; type: cell-based; details: % efflux of total uptake, compounds approximately at IC50 concentration
T2 construct: expressed in transfected cells
Description: as §1, §2

hSERT = target: T3, hSERT (Homo sapiens, UniProt P31645); type: cell-based
T3 construct: expressed in transfected cells
Description: as §1, §2

rSERT = rSERT (Rattus norvegicus, UniProt P31652); type: cell-based; set-up: expressed in transfected cells; details: for Mean diff, rSERT efflux ± Mon (Šídák's multiple comparisons test): drug alone vs drug + monensin (Mon)
Description: A day prior to the experiment, HEK293 cells stably expressing hSERT or rat SERT (rSERT) were seeded at a density of 100,000 cells per channel into 6 channel flow ibidi slides (Gräfelfing, Germany). On the day of the experiments, cells were preloaded with 0.1 μM [^3H]5-HT at 37 °C, 5% CO2 for 20 min. Subsequently, the slides were transferred to the superfusion apparatus ([59]). Cells were then washed with KHB for 15 min under a constant flow of 0.5 ml/min. Fractions were collected every 2 min in 8 ml vials containing 2 ml scintillation cocktail. Collection began with three baseline fractions using KHB, followed by four additional basal release fractions with KHB, either with or without 10 μM monensin. […] To assess residual radioactivity within the cells, they were lysed with 1% sodium dodecyl sulfate (SDS), and three final fractions were obtained. The measured tritiated substrate in each fraction was expressed as a percentage of the initial tritiated substrate present at the start of that fraction.
Uptake inhibition data were evaluated by one-way ANOVA followed by Tukey's multiple comparisons test. Release data were analyzed using a two-way ANOVA (batch release) or a mixed-effects model with Geisser-Greenhouse correction (time-dependent traces) employing Šidák correction for comparing differences between compounds with or without the addition of monensin.

rSERT, sequence (P31652 whole entry, the tested form may be a part): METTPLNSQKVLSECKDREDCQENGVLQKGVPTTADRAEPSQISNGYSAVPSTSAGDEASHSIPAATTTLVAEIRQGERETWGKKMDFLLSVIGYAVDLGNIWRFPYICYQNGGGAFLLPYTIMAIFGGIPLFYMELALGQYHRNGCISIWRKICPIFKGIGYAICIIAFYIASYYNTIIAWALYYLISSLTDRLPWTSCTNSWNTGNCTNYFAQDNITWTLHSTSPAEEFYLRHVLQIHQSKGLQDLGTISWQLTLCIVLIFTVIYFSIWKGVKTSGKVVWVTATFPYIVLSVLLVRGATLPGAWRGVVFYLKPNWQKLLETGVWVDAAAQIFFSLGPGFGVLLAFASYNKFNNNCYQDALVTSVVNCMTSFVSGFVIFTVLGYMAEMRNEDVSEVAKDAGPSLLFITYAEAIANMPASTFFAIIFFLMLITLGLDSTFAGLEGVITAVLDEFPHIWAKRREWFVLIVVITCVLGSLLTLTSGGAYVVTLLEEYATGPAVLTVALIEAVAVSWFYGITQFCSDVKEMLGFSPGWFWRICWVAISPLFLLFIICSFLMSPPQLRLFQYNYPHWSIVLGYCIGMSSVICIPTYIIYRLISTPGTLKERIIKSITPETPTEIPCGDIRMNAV
T2 sequence (P23975 whole entry): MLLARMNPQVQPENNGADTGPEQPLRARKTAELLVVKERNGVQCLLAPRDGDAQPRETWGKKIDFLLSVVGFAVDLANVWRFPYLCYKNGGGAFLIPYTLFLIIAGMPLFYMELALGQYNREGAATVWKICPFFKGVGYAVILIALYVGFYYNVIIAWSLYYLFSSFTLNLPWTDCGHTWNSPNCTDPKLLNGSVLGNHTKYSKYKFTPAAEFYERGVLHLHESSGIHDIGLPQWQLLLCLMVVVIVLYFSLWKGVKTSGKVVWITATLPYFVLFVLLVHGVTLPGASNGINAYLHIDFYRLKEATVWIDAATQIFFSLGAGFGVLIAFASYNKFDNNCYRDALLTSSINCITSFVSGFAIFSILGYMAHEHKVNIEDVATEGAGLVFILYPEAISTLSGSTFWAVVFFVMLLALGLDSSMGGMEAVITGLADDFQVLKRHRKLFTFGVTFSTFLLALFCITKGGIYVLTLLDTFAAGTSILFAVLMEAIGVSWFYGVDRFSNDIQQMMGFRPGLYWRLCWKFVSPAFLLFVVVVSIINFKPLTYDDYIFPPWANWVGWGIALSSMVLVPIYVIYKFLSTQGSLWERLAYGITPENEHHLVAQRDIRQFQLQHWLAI
T1 sequence (Q01959 whole entry): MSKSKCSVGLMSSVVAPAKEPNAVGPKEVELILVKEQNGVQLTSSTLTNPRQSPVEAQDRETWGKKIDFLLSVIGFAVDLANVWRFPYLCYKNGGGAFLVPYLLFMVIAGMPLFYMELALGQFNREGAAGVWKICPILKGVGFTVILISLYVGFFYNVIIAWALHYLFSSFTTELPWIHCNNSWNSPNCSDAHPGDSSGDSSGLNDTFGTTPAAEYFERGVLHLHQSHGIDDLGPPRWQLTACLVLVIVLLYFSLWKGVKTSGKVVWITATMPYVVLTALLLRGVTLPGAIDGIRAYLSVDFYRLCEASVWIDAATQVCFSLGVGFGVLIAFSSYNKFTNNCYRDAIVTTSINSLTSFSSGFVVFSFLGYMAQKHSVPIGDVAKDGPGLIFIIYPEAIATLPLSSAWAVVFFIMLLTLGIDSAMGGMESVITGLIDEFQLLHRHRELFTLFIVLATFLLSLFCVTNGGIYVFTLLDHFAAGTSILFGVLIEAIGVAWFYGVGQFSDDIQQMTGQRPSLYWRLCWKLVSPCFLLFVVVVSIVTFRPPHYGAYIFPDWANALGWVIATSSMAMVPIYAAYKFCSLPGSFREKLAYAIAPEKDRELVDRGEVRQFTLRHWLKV
T3 sequence (P31645 whole entry): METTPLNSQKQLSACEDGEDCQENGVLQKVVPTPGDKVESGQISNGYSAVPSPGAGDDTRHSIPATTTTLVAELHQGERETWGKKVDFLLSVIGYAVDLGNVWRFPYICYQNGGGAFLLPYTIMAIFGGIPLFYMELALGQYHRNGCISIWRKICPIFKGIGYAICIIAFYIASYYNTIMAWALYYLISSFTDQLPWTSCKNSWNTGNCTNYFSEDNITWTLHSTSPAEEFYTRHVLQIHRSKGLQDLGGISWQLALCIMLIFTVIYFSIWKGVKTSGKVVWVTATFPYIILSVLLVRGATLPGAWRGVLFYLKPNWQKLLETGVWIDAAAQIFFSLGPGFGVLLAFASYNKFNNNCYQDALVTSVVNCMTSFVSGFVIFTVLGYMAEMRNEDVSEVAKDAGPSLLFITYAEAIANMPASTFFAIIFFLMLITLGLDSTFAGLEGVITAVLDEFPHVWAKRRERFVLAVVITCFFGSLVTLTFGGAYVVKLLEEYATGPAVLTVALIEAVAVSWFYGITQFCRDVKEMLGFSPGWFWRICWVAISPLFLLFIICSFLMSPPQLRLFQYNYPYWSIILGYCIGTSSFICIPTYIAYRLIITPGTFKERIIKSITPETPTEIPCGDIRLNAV

NCCc1c[nH]c2ccc(O)cc12 [5-HT, serotonin]
current in native HEK293 cells without transfection (native HEK293 cells): no current could be recorded; also recorded: do not induce currents

Fc1ccc(C(OCCN2CCN(CCCc3ccccc3)CC2)c2ccc(F)cc2)cc1 [GBR12909, vanoxerine, reference compound]
hDAT-mediated efflux, predicted (LS) mean diff, No mon - Mon (hDAT): -0.7725
hNET-mediated efflux, predicted (LS) mean diff, No mon - Mon (hNET): -0.7072

C[C@H](N)Cc1ccccc1 [S-(+)-amphetamine, dextroamphetamine hemi sulfate salt, reference compound]
hDAT-mediated efflux, predicted (LS) mean diff, No mon - Mon (hDAT): -1.735
hNET-mediated efflux, predicted (LS) mean diff, No mon - Mon (hNET): -5.397

CC(N)Cc1ccc(Cl)cc1 (stereo not shown) [pCA, para-chloroamphetamine]
hSERT-mediated efflux, predicted (LS) mean diff, No mon - Mon (hSERT): -18.87
Mean diff, rSERT efflux ± Mon (Šídák's multiple comparisons test) (rSERT; Row 1 (time fraction)): 0.1306
Mean diff, rSERT efflux ± Mon (Šídák's multiple comparisons test) (rSERT; Row 2 (time fraction)): 0.1761
Mean diff, rSERT efflux ± Mon (Šídák's multiple comparisons test) (rSERT; Row 3 (time fraction)): 0.2854
Mean diff, rSERT efflux ± Mon (Šídák's multiple comparisons test) (rSERT; Row 4 (time fraction)): 0.1377
Mean diff, rSERT efflux ± Mon (Šídák's multiple comparisons test) (rSERT; Row 5 (time fraction)): -0.4218
Mean diff, rSERT efflux ± Mon (Šídák's multiple comparisons test) (rSERT; Row 6 (time fraction)): -0.8916
Mean diff, rSERT efflux ± Mon (Šídák's multiple comparisons test) (rSERT; Row 7 (time fraction)): -1.153
Mean diff, rSERT efflux ± Mon (Šídák's multiple comparisons test) (rSERT; Row 8 (time fraction)): -7.649
Mean diff, rSERT efflux ± Mon (Šídák's multiple comparisons test) (rSERT; Row 9 (time fraction)): -4.816
Mean diff, rSERT efflux ± Mon (Šídák's multiple comparisons test) (rSERT; Row 10 (time fraction)): -3.007
Mean diff, rSERT efflux ± Mon (Šídák's multiple comparisons test) (rSERT; Row 11 (time fraction)): -2.599
Mean diff, rSERT efflux ± Mon (Šídák's multiple comparisons test) (rSERT; Row 12 (time fraction)): -2.043
magnitude of [3H]5-HT release in cells expressing rSERT compared to hSERT (rSERT; superfusion, HEK293 cells): significantly lower magnitude
